Laboratory results published in paper PMC9258905, “Discovery of Quercetin and Its Analogs as Potent OXA-48 Beta-Lactamase Inhibitors” (Frontiers in Pharmacology, 2022).
Like-named read-outs stand apart in the source and are kept apart here.

Columns and labels:
[1] = target: T1, OXA-48 (Klebsiella pneumoniae, UniProt Q6XEC0); assay: Surface plasmon resonance interaction analysis; format: binding; conditions: 12.5-200 µM quercetin over immobilized OXA-48
T1 construct: made in house; host or cells: E. coli BL21(DE3)
Protocol: Surface plasmon resonance (SPR) experiments were performed on a Biacore T100 at 25°C. The running buffer consisted of 10 mM PBS (pH 7.3), 0.5% Tween-20, and 2.5% DMSO. OXA-48 solution was prepared in a concentration of […] in 10 mM PBS (pH 7.3) and immobilized on a CM5 chip using standard amine coupling to a level of approximately 5000 RU. Quercetin was dissolved in the running buffer and tested in 2-fold dilutions ranging from 12.5 to 200 µM with an injection time of 30 s and a dissociation time of 60 s. The data were analyzed using Biacore T100 Evaluation Software 2.0.
A surface plasmon resonance (SPR) assay was then performed to investigate whether quercetin inhibited the activity of OXA-48 by directly binding to OXA-48. OXA-48 enzyme was immobilized on a CM5 sensor chip with an immobilization level of approximately 5000 RU. Quercetin was injected at different concentrations (12.5, 25, 50, 100 and 200 µM) over the protein surface.

[2] = target: T1, OXA-48; assay: Isothermal titration calorimetry of imipenem hydrolysis by OXA-48; format: biochemical; conditions: quercetin 0 to 40 µM, imipenem 1 mM, OXA-48 10 nM, 25°C
Protocol: OXA-48, imipenem, and quercetin were prepared in 30 mM Tris, 5 mM NaHCO3 (pH 7.5) supplemented with 5% DMSO. […] The solutions were degassed by centrifugation at a speed of 14,000 × g for 5 min before injection. The enzyme and inhibitor samples were preincubated for 1 h and then loaded into the sample cell. Imipenem (38 µL) in the syringe was titrated into the sample cell (210 µL) in a single injection mode. Heat flow (μcal/s) was recorded as a function of time. As a negative control, the reaction in the absence of quercetin was measured. The data were collected and analyzed with MicroCal Analysis Launcher Origin 7.0 software.
Isothermal titration calorimetry (ITC) was performed to assess the thermodynamic inhibitory effect of quercetin against OXA-48 ([Zhang et al., 2018]). […] Different concentrations of quercetin were incubated with purified OXA-48 for 1 h in 30 mM Tris, 5 mM NaHCO3 (pH 7.5). The mixtures were loaded into the sample cell (210 µL). A 38 µL of the substrate (imipenem) in the syringe was titrated into the sample cell in a single injection mode.

[3] = target: T1, OXA-48; assay: Enzyme inhibition assay against purified OXA-48 with nitrocefin as substrate; format: biochemical; conditions: for percent inhibition against OXA-48: at 50 μM compound, nitrocefin substrate, 50 µM; for IC50: purified OXA-48 12 nM, nitrocefin 200 μM, 0.1 M phosphate buffer pH 7.0, 50 mM NaHCO3, 25°C, read-out: IC50 against OXA-48
Protocol: The inhibitory activity of compounds against the purified OXA-48 was tested on a BioTek HTS reader. The reactions were conducted in 0.1 M phosphate buffer (pH 7.0) supplemented with 50 mM NaHCO3 at 25°C with a final assay volume of 100 μL. The concentrations of enzyme and substrate were 12 nM and 200 μM, respectively. The initial reaction rates in the absence and presence of the compound were monitored at 495 nm in triplicate. The inhibitor concentration causing a 50% decrease in enzyme activity (IC50) was determined by plotting the percent inhibition against the log10 of the inhibitor concentration and fitting the data in a dose–response-inhibition model using GraphPad Prism 7.0.
Quercetin is a member of the flavonoid class with diverse structures obtained from nature, some of which have been used for the treatment of infectious diseases in traditional medical systems ([Farhadi et al., 2019]). To investigate whether quercetin and other flavonoids are OXA-48 inhibitors, the enzyme inhibition assays were conducted on a BioTek HTS reader using nitrocefin as a substrate. The concentrations of enzyme and substrate were 12 nM and 200 μM, respectively. The initial hydrolysis rate of nitrocefin was monitored at 495 nm. The percentage inhibition is defined as the enzyme activity in the absence of inhibitor (100%) minus the remaining activity in the presence of inhibitor.

[4] = tested on: mice; conditions: cited from earlier work
[5] = target: T1, OXA-48; assay: Inhibition kinetics (Lineweaver-Burk plots) of OXA-48-catalyzed nitrocefin hydrolysis; format: biochemical; conditions: for inhibition mode: Lineweaver-Burk plots, Km unchanged, Vmax decreased; for Ki: nitrocefin 25, 50, 75, 100 μM, Lineweaver-Burk
Protocol: The inhibition mode of quercetin and the inhibition constant (K i) were determined using a Lineweaver–Burk plot by fitting the initial rate versus the substrate concentration at each inhibitor concentration using SigmaPlot 12.0. The nitrocefin concentrations were 25, 50, 75, and 100 μM, respectively. The initial velocity was determined by measuring the […] as described above. All reaction rates were determined in triplicate.
To determine the inhibition mode of the flavonoids, the inhibition kinetics of quercetin, fisetin and luteolin against OXA-48 in the presence of different concentrations of substrate were determined, and the inhibition modes were determined by generating Lineweaver-Burk plots.

[6] = target: T2, OXA-48 β-Lactamase (Klebsiella pneumoniae, UniProt Q6XEC0); assay: Partition ratio measurement; format: biochemical; conditions: OXA-48 12 nM, 1 h incubation; at a 5 μM concentration of quercetin
T2 construct: made in house; host or cells: E. coli BL21(DE3)

[7] = tested on: E.coli BW25113 ∆acrA∆bamB (OXA-48); format: cell-based; conditions: for reduction in the piperacillin MIC: compound at 64 μg/mL; for MIC decrease for imipenem: compound at a dose of 64 μg/mL
Protocol: The recombinant plasmid containing the Pbla promoter and OXA-48 constructed above was then transformed into BW25113, BW25113 ∆acrA, BW25113 ∆bamB, and BW25113 ∆acrA∆bamB. The above strains were used to study the minimum inhibitory concentration (MIC). Antibiotic susceptibility tests were performed by the microdilution method following Clinical and Laboratory Standards Institute (CLSI) criteria ([CLSI, 2015]). Four E. coli strains expressing OXA-48 were used to assess the inhibitors. The susceptibility to piperacillin/imipenem combined with the compound at a concentration of 16 or 64 μg/mL was determined. […] Each measurement was conducted in triplicate. The fractional inhibitory concentration index (FICI) was determined according to the following formula: FICI = MIC (QT) in combination/MIC (QT) alone + MIC (PIP) in combination/MIC (PIP) alone. The drug interactions are defined as synergistic if the FICI is ≤0.5, indifferent if the FICI is >0.5 and ≤4.0, and antagonistic if the FICI is >4.0.
To investigate whether the compounds could restore the antimicrobial activity of β-lactam, the MICs of β-lactam antibiotics against resistant Gram-negative bacteria in the absence and presence of compounds (fisetin, 3′,4′,7-trihydroxyflavone, luteolin or quercetin) were determined by using published guidelines described by CLSI ([CLSI, 2015]). Specifically, we used OXA-48 producing strains E. coli BW25113, BW25113 ∆acrA, BW25113 ∆bamB, and BW25113 ∆acrA∆bamB as resistant Gram-negative bacteria. […] Imipenem, a carbapenem antibiotic, was applied at increasing concentrations ranging from 0.03 μg/mL to 4 μg/mL. The compounds were tested at 64 and 16 μg/mL.

[8] = tested on: ∆acrA∆bamB (OXA-48) mutant strain; assay: Cell-based screen of natural products in the presence of piperacillin; design: species or system E. coli
Protocol: The ∆acrA∆bamB (OXA-48) mutant strain was then used to screen for inhibitors of OXA-48. […] Approximately 150 plant natural products with a concentration of 40 μg/mL were screened in the presence of 128 μg/mL piperacillin.

[9] = tested on: E. coli BW25113 ∆acrA∆bamB (OXA-48); assay: Growth curve with quercetin alone; format: cell-based; conditions: quercetin at 16 or 64 μg/mL
Excerpt: We next performed checkerboard microdilution assays against OXA-48-positive strain BW25113 ∆acrA∆bamB (OXA-48) and OXA-48-negative strain ∆acrA∆bamB to assess the synergistic antimicrobial effect. […] The synergy effect was further verified by time-kill curves.
FIGURE 6 (A,B) Heatmap showing the growth inhibition of OXA-48-positive strain E. coli BW25113 ∆acrA∆bamB (OXA-48) (A) and OXA-48-negative strain ∆acrA∆bamB (B) in the presence of quercetin and piperacillin. (C) Time-kill curves for combination therapy of piperacillin and quercetin against E. coli BW25113 ∆acrA∆bamB (OXA-48). The concentrations of piperacillin and quercetin used in the assay were 64 and 64 μg/mL , respectively. (D) The growth curve of E. coli BW25113 ∆acrA∆bamB (OXA-48) in the absence and presence of quercetin.

[10] = tested on: E. coli BW25113 ∆acrA∆bamB (OXA-48); assay: Mouse systemic infection model; format: in vivo, Kunming mice; conditions: 10 mg/kg each, intravenous, 1 h post infection; organs 24 h post-infection; vs untreated group
[11] = tested on: KPC-2; design: method as in Papp-Wallace et al., 2010; conditions: for KPC-2; ref Papp-Wallace et al., 2010; cited from earlier work
[12] = tested on: cells; conditions: 50 µM fisetin/luteolin; ref Hytti et al., 2015; cited from earlier work

T1 sequence (Q6XEC0 23-265 limits assumed): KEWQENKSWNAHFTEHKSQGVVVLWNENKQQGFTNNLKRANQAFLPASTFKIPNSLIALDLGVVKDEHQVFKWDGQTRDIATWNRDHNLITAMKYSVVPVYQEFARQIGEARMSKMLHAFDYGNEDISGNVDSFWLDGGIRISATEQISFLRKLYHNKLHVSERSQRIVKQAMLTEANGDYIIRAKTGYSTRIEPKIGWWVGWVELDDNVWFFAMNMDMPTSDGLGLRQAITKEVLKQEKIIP
T2 sequence (Q6XEC0 23-265 limits assumed): as above

In the case of `O=c1c(O)c(-c2ccc(O)c(O)c2)oc2cc(O)cc(O)c12` [Quercetin], the “SPR interaction with OXA-48” value [1] is reported as “dose-dependent interaction”, the “reversibility of inhibition (total heat of imipenem hydrolysis)” value [2] is reported as “reversibly inhibited OXA-48” and the “percent inhibition against OXA-48” value [3] is reported as 87%. For the same compound, the “percent inhibition against OXA-48” value ([3]; listed as quercetin) was “more than 50%”, the IC50 [3] was 1470 ± 140 nM and the LD50 ([4]; ref Sullivan et al., 1951, Taepongsorat et al., 2008) was 160 mg/kg. The inhibition mode [5] was “noncompetitively inhibited”, the Ki [5] was 1310 ± 210 nM and the “partition ratio (I:E for greater than 90% inhibition)” value [6] was “approximately 420”. The “reduction in the piperacillin MIC” value [7] was 8 fold, the “MIC decrease for imipenem” value [7] was 2 fold and the “restoration of antibiotic activity in screen” value ([8]; 40 μg/mL compound with 128 μg/mL piperacillin) was “restored antibiotic activity”. For the same compound, the “bactericidal effect of the compound itself” value ([8]; in the absence of piperacillin) was “without bactericidal effect”, the “growth of the cells” value [9] was “did not inhibit the growth of the cells” and the “bacterial load in spleen and liver” value [10] was “did not show a significant reduction of bacterial load”.

For `O=C(O)[C@H]1/C(=C/CO)O[C@@H]2CC(=O)N21` [clavulanic acid], the partition ratio [11] is listed as 2,500.

For `O=c1cc(-c2ccc(O)c(O)c2)oc2cc(O)cc(O)c12` [Luteolin], the “percent inhibition against OXA-48” value [3] was 81%, the “percent inhibition against OXA-48” value ([3]; listed as luteolin) was “more than 50%” and the IC50 [3] was 550 ± 20 nM. For the same compound, the LD50 ([4]; ref Ardeshir et al., 2018) was 150 mg/kg, the inhibition mode [5] was “noncompetitively inhibited” and the Ki [5] was 820 ± 50 nM. For the same compound, the “reduction in the piperacillin MIC” value [7] was 4 fold and the “MIC decrease for imipenem” value [7] was 2 fold.

In the case of `O=c1c(O)c(-c2ccc(O)c(O)c2)oc2cc(O)ccc12` [Fisetin], the “percent inhibition against OXA-48” value [3] is reported as 90%, the “percent inhibition against OXA-48” value ([3]; listed as fisetin) is reported as “more than 50%” and the IC50 [3] is reported as 470 ± 30 nM. The inhibition mode [5] was “noncompetitively inhibited”, the Ki [5] was 620 ± 60 nM and the “toxicity to the cells” value [12] was “no toxicity”. For the same compound, the “reduction in the piperacillin MIC” value [7] was 2 fold and the “MIC decrease for imipenem” value [7] was 2 fold.
